From US20260109707A1, “HETEROBIFUNCTIONAL COMPOUNDS AND METHODS OF TREATING DISEASE” (Halda Therapeutics OpCo. Inc., priority 2022, published 2026)
pKd: −log10 of the molar value.

What was measured:
[1] = system: VCaP cells; assay: Cellular growth inhibition assay for VCaP cells (CellTiter-Glo, 72 hours); assay type: cell-based, human; settings: Homo sapiens, VCaP, 72 h
In short: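 Luminescent viability signal after 72 h of compound exposure gave GI50 values by four-parameter nonlinear regression. Compounds were added in 0.5% DMSO to cells plated 24 h earlier at 5000/well in DMEM containing 10% FBS.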

[2] = target: T1, androgen receptor (Homo sapiens, UniProt P10275); assay: Assay for binding affinity to androgen receptor ([3H]methyltrienolone radioligand, cell cytosol); settings: binding to the androgen receptor, Table 3
T1 sequence (P10275 1-920 T878A): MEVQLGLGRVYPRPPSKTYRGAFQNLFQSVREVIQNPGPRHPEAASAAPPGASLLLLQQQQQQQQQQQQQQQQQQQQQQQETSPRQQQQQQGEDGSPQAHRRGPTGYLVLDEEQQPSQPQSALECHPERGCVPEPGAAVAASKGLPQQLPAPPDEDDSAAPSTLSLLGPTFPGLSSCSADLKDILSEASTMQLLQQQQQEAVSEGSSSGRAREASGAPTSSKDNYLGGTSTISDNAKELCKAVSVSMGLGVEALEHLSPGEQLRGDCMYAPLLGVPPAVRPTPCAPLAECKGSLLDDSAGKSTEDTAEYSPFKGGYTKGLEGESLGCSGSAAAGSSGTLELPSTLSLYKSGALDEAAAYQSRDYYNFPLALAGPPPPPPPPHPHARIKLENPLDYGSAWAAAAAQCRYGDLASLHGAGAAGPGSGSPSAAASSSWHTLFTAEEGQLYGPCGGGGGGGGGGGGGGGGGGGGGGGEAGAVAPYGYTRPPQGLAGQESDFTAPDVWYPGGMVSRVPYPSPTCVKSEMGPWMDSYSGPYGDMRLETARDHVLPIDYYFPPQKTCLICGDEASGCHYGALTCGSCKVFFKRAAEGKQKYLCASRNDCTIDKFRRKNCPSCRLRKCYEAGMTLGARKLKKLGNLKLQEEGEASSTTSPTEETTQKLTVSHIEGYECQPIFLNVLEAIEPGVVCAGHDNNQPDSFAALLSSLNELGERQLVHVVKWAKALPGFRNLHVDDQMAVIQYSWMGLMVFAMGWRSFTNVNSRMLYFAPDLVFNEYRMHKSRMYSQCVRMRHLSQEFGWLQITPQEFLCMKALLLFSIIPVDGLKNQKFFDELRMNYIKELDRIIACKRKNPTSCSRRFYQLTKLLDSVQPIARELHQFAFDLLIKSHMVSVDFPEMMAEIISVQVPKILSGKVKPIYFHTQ
Procedure: Fractions of cell cytosol ([…]) were incubated for 24 hr at 4° C. with 1 nM [^3H]methyltrienolone in the absence or presence of the test compound in a buffer containing 25 mM Hepes-Tris (pH 7.4), 1 mM EDTA, 10 mM Na2MoO4, 2 mM DTT, 5 μM triamcinolone acetonide, and 10% glycerol. Nonspecific binding was determined in the presence of […] testosterone. Following incubation, the samples were filtered rapidly under vacuum through glass fiber filters (GF/B, Packard) presoaked with 0.3% PEI and rinsed several times with ice-cold 50 mM Tris-HCl using a 96-sample cell harvester (Unifilter, Packard). The filters were dried then counted for radioactivity in a scintillation counter (Topcount, Packard) using a scintillation cocktail (Microscint 0, Packard). The results are expressed as a percent inhibition of the control radioligand specific binding. The standard reference compound is testosterone, which is tested in each experiment at several concentrations to obtain a competition curve from which its IC50 is calculated.

| Structure (SMILES) | GI50 [1] | pKd [2] |
| --- | --- | --- |
| CCNC(=O)C[C@@H]1N=C(c2ccc(N3CC4(C3)CN(c3ccc(C(=O)N[C@H]5CC[C@H](Oc6ccc(C#N)c(Cl)c6)CC5)nn3)C4)cc2)c2c(sc(C)c2C)-n2c(C)nnc21 [I-24] | < 500 nM | > 7.30 |
| CCNC(=O)C[C@@H]1N=C(c2ccc(OCCOCCOC3CCN(c4ccc(C(=O)N[C@H]5CC[C@H](Oc6ccc(C#N)c(Cl)c6)CC5)nn4)CC3)cc2)c2c(sc(C)c2C)-n2c(C)nnc21 [I-10] | < 500 nM | > 7.30 |
| CCNC(=O)C[C@@H]1N=C(c2ccc(OCCOC3CCN(c4ccc(C(=O)N[C@H]5CC[C@H](Oc6ccc(C#N)c(Cl)c6)CC5)nn4)CC3)cc2)c2c(sc(C)c2C)-n2c(C)nnc21 [I-8] | < 500 nM | > 7.30 |
| CCNC(=O)C[C@@H]1N=C(c2ccc(N3CCC(OC4CCN(c5ccc(C(=O)N[C@H]6CC[C@H](Oc7ccc(C#N)c(Cl)c7)CC6)nn5)CC4)CC3)cc2)c2c(sc(C)c2C)-n2c(C)nnc21 [I-44] | < 500 nM | > 7.30 |
| CCNC(=O)C[C@@H]1N=C(c2ccc(CC3CCN(c4ccc(C(=O)N[C@H]5CC[C@H](Oc6ccc(C#N)c(Cl)c6)CC5)nn4)CC3)cc2)c2c(sc(C)c2C)-n2c(C)nnc21 [I-20] | < 500 nM | > 7.30 |
| CCNC(=O)C[C@@H]1N=C(c2ccc(CCCOC3CCN(c4ccc(C(=O)N[C@H]5CC[C@H](Oc6ccc(C#N)c(Cl)c6)CC5)nn4)CC3)cc2)c2c(sc(C)c2C)-n2c(C)nnc21 [I-17] | < 500 nM |  |
| CCNC(=O)C[C@@H]1N=C(c2ccc(OCC3CN(c4ccc(C(=O)N[C@H]5CC[C@H](Oc6ccc(C#N)c(Cl)c6)CC5)nn4)C3)cc2)c2c(sc(C)c2C)-n2c(C)nnc21 [I-29] | < 500 nM | > 7.30 |
| CCNC(=O)C[C@@H]1N=C(c2ccc(OCCCN(C)c3ccc(C(=O)N[C@H]4CC[C@H](Oc5ccc(C#N)c(Cl)c5)CC4)nn3)cc2)c2c(sc(C)c2C)-n2c(C)nnc21 [I-48] | < 500 nM | > 7.30 |
| Cc1sc2c(c1C)C(c1ccc(Cl)cc1)=N[C@@H](CC(=O)NCCOC1CCN(c3ccc(C(=O)N[C@H]4CC[C@H](Oc5ccc(C#N)c(Cl)c5)CC4)nn3)CC1)c1nnc(C)n1-2 [I-1, N-[4-(3-chloro-4-cyano-phenoxy)cyclohexyl]-6-[4-[2-[[2-[(9S)-7-(4-chlorophenyl)-4,5,13-trimethyl-3-thia-1,8,11,12-tetrazatricyclo[8.3.0.0^2,6]trideca-2(6),4,7,10,12-pentaen-9-yl]acetyl]amino]ethoxy]-1-piperidyl]pyridazine-3-carboxamide] | < 500 nM | > 7.30 |
| Cc1sc2c(c1C)C(c1ccc(Cl)cc1)=N[C@@H](CC(=O)NCCOCCOCCOC1CCN(c3ccc(C(=O)N[C@H]4CC[C@H](Oc5ccc(C#N)c(Cl)c5)CC4)nn3)CC1)c1nnc(C)n1-2 [I-2, N-[4-(3-chloro-4-cyano-phenoxy)cyclohexyl]-6-[4-[2-[2-[2-[[2-[(9S)-7-(4-chlorophenyl)-4,5,13-trimethyl-3-thia-1,8,11,12-tetrazatricyclo[8.3.0.0^2,6]trideca-2(6),4,7,10,12-pentaen-9-yl]acetyl]amino]ethoxy]ethoxy]ethoxy]-1-piperidyl]pyridazine-3-carboxamide] | < 500 nM | > 7.30 |
